The molecules below were run against Carbonyl reductase [NADPH] 3 (Homo sapiens) (UniProt O75828) (assay: CBR3 binders by thermal stabilization, biophysical, DSF, SYPRO orange, recombinant protein (AID 512)). Conditions: at 10 µM, buffer 10 mM HEPES, pH 7.5, NaCl 150 mM, NADP 100 µM, protein 2 µM, stronger effect = higher value.
Carbonyl reductase [NADPH] 3 (Homo sapiens), sequence (O75828 whole entry, looked up): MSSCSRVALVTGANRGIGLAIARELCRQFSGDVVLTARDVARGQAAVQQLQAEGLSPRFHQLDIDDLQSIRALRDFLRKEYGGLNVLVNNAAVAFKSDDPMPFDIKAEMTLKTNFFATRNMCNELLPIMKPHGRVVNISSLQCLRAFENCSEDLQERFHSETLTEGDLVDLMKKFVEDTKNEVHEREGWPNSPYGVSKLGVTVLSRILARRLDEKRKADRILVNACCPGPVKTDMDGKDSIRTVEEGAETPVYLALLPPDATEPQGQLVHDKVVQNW

| Compound | Tm shift |
| --- | --- |
| Brc1ccc(-c2[nH]c(-c3c[nH]c4ccccc34)nc2-c2ccccc2)cc1 | 2.1 Celsius |
| COc1cc(/C=C/C(=O)CC(=O)/C=C/c2ccc(O)c(OC)c2)ccc1O | 3.1 Celsius |
| Cc1ccc2c(c1)=C(c1[nH]c(=S)[nH]c1O)C(=O)N=2 | 2.4 Celsius |

Same assay, conditions: at 10 µM, buffer 10 mM HEPES, pH 7.5, NaCl 150 mM, protein 2 µM, stronger effect = higher value

| Compound | Tm shift |
| --- | --- |
| O=C1C(=O)C(c2ccc(O)cc2)Oc2cc(O)cc(O)c21 (centres undefined) | 2.1 Celsius |
| NC(=O)c1ccc[n+](C2OC(COP(=O)(O)OP(=O)(O)OCC3OC(n4cnc5c(N)ncnc54)C(OP(=O)(O)O)C3O)C(O)C2O)c1 (centres undefined) | 4.4 Celsius |
| O=c1oc2cc(O)ccc2c2oc3cc(O)ccc3c12 | 3.1 Celsius |
| CCN(CC)C(=S)SSC(=S)N(CC)CC | 2.5 Celsius |
| O=C1C(=O)C(c2ccc(O)cc2O)Oc2cc(O)cc(O)c21 (centres undefined) | 2.2 Celsius |

Same assay, conditions: measured here: second experiment Tm shift, at 10 µM, run 2, buffer 10 mM HEPES, pH 7.5, NaCl 150 mM, NADP 100 µM, protein 2 µM, stronger effect = higher value

| Compound | Tm shift |
| --- | --- |
| COc1cc(/C=C/C(=O)CC(=O)/C=C/c2ccc(O)c(OC)c2)ccc1O | 2.4 Celsius |
